{"source": "patent US20090163474A1", "about": "“FXR Agonists for the Treatment of Nonalcoholic Fatty Liver and Cholesterol Gallstone Diseases” (Wyeth, priority 2007, published 2009)", "key": {"[1]": {"test_system": "wildtype (WT) mice fed a MCD diet", "assay": "MCD diet, wildtype mice (WT vs FXRKO study)", "type": "in vivo", "conditions": "30 mg/kg orally once a day for 4 weeks", "protocol": "(§1) Mice were fed a standard chow diet or a MCD diet and treated with either vehicle or 30 mg/kg Compound A orally once a day for 4 weeks."}, "[2]": {"test_system": "C57BL/6 mice fed a methionine/choline deficient (MCD) diet", "assay": "MCD diet fed mice: serum, liver gene expression and liver histology", "type": "in vivo", "protocol": "Male C57BL/6 mice were fed a standard chow diet or a methionine/choline deficient (MCD) diet (MCD diet; TD 90262, Harlan Teklad). MCD diet fed mice develop fibrosis and NAFLD including steatosis and NASH due to impaired mitochondrial β-oxidation and reduced hepatic triglyceride secretion.\nMice were administered vehicle or 30 mg/kg Compound A orally once a day for 4 weeks. Three hours after the final treatment, mice were euthanized, and blood and liver were collected for analyses.\nFIGS. 11A and 11B show the expression levels of VCAM-1 and MCP-1, respectively. Real-time RT PCR analysis of liver RNA was performed. Expression levels were normalized to GAPDH, and the mean level of expression of each gene in vehicle treated mice fed a standard chow diet was defined as 1.0. 7 mice were tested in each group. Data are presented as the mean±SE.\nFIGS. 13, 14, and 15 show representative liver sections from mice fed a standard chow diet, vehicle treated mice fed a MCD diet, and Compound A (30 mg/kg orally once a day) treated mice fed a MCD diet for 4 weeks.\nMale C57BL/6 mice were fed a standard chow diet or a MCD diet and treated with either vehicle or 30 mg/kg Compound A orally once a day for 4 weeks. Three hours after the final treatment, mice were euthanized and liver expression of CYP2E1, a reactive oxygen species (ROS) generating microsomal enzyme, was analyzed."}, "Hep3B cells [3]": {"test_system": "Hep3B cells", "assay": "IL-6 induced CRP gene expression in Hep3B cells", "type": "cell-based, Human", "conditions": "Compound A 1 μM; IL-6 10 ng/ml or 50 ng/ml; P<0.001 vs DMSO", "protocol": "(§2) Human hepatoma cells, Hep3B secrete the acute phase protein, C-reactive protein (CRP) upon IL-6 treatment. Cells were cotreated with Compound A to determine if Compound A could decrease IL-6 induced CRP secretion.\nFIGS. 26A and 26B show the CRP gene expression level in Hep3B cells stimulated with IL-6 (10 ng/ml or 50 ng/ml), and treated with vehicle (DMSO) or Compound A (1 μM). […] (*P<0.001, Hep3B/DMSO vs. Hep3B/Compound A)."}, "[4]": {"test_system": "FXR deficient (FXRKO) mice fed a MCD diet", "assay": "MCD diet, FXR deficient mice (WT vs FXRKO study)", "type": "in vivo", "conditions": "30 mg/kg orally once a day for 4 weeks", "protocol": "as §1"}, "[5]": {"test_system": "C57BL/6 mice with preformed gallstones", "assay": "Gallstone dissolution in mice with preformed gallstones", "type": "in vivo", "conditions": "Paigen diet 4 weeks, then 30 mg/kg orally once a day on chow diet for 4 weeks", "protocol": "To study gallstone dissolution, gallbladders were harvested from mice treated as follows. C57BL/6 mice were fed a Paigen diet for 4 weeks to initiate gallstone formation. Subsequently these mice were administered vehicle or 30 mg/kg Compound A orally once a day and fed a standard chow diet for 4 weeks to study the effect of Compound A on preformed gallstones."}, "[6]": {"test_system": "Wildtype mice challenged with CCl4", "assay": "CCl4 induced acute liver injury and fibrosis in mice", "type": "in vivo", "conditions": "30 mg/kg for 4 days, 30 μl/kg CCl4 on day 3, 24 hours", "protocol": "Wildtype mice were treated with 30 mg/kg Compound A or vehicle for 4 days. On day 3, mice were challenged with 30 μl/kg of carbon tetrachloride (CCl4) to induce acute liver injury. After 24 hours, mice were euthanized and their livers were harvested for analysis."}, "[7]": {"test_system": "mice with preformed gallstones", "assay": "Gallbladder bile lipid composition, preformed gallstones", "type": "in vivo", "protocol": "(§3) Disrupted cholesterol, phospholipid, and bile salt homeostasis contributes to the formation of gallstones. Gallbladder bile lipid composition was quantitated from mice treated as follows. A group of mice (CHOW) was fed a standard chow diet. Another group of mice was fed a Paigen diet and administered vehicle (Paigen/Vehicle) or 30 mg/kg Compound A (Paigen/Compound A) orally once a day for 4 weeks. To preform gallstones, mice were fed initially a Paigen diet for 4 weeks and subsequently fed a standard chow diet and administered vehicle (Preformed/Vehicle) or 30 mg/kg Compound A (Preformed/Compound A) orally once a day for 4 weeks. […] Data are presented as the mean±SE."}, "Hep3B cells [8]": {"test_system": "Hep3B cells", "assay": "IL-6 induced CRP secretion in Hep3B cells", "type": "cell-based, Human", "conditions": "for IC50: Homo sapiens, Hep3B, read-out: IC50 of inhibitory effect on CRP secretion", "protocol": "as §2\nFIGS. 24A, 24B, and 24C show the levels of CRP secretion (pg/ml) in Hep3B cells after stimulation with IL-6 (10 ng/ml), or IL-6 (50 ng/ml), or IL-6 (10 ng/ml & IL-1β 20 ng/ml), and treated with vehicle (DMSO) or Compound A (5 μM). […] (*P<0.001, Hep3B/DMSO vs. Hep3B/Compound A)."}, "mice fed a Paigen diet": {"test_system": "mice fed a Paigen diet", "assay": "Gallbladder bile lipid composition, Paigen diet with treatment", "type": "in vivo", "protocol": "as §3"}, "[9]": {"conditions": "30 mg/kg orally once a day for 4 weeks, MCD diet"}, "[10]": {"conditions": "30 mg/kg orally once a day for 4 weeks, MCD diet, RT PCR, p<0.001"}, "[11]": {"conditions": "30 mg/kg orally once a day for 4 weeks, p<0.001"}, "[12]": {"conditions": "30 mg/kg orally once a day, MCD diet for 4 weeks"}, "[13]": {"conditions": "Preformed/Compound A vs Preformed/Vehicle"}, "[14]": {"conditions": "Preformed/Compound A, Paigen diet 4 weeks, then chow and 30 mg/kg orally once a day for 4 weeks, mean±SE"}, "[15]": {"conditions": "Paigen/Compound A vs Paigen/Vehicle"}, "[16]": {"conditions": "Paigen/Compound A, 30 mg/kg orally once a day for 4 weeks, mean±SE"}}, "note": "Like-named read-outs stand apart in the source and are kept apart here."}
{"compound": "CC(C)OC(=O)C1=CN(C(=O)c2ccc(F)c(F)c2)CC(C)(C)c2c1[nH]c1ccccc21", "note": "[Compound A, isopropyl 3-(3,4-difluorobenzoyl)-1,1-dimethyl-1,2,3,6-tetrahydroazepino[4,5-b]indole-5-carboxylate]", "values": [{"measurement": "liver TIMP-1 gene expression level vs vehicle", "setting": "[1]; P<0.001", "value": "reduction"}, {"measurement": "liver VCAM-1 gene expression level vs vehicle", "setting": "[1]; P<0.001", "value": "decreasing"}, {"measurement": "liver Col1a2 expression level vs vehicle", "setting": "[1]; P<0.01", "value": "reduction"}, {"measurement": "serum ALT levels vs vehicle", "setting": "[1]; P<0.01", "value": "decreased"}, {"measurement": "liver FXR gene expression level", "setting": "[2]; [9]", "value": "did not normalize"}, {"measurement": "liver FXR target gene expression (SHP, BSEP)", "setting": "[2]; [9]", "value": "normalized"}, {"measurement": "liver MCP-1 expression", "setting": "[2]; [10]", "value": "significantly inhibited"}, {"measurement": "liver VCAM-1 expression", "setting": "[2]; [10]", "value": "significantly inhibited"}, {"measurement": "serum aspartate aminotransferase (AST) activity level", "setting": "[2]; 30 mg/kg orally once a day for 4 weeks, MCD diet, mean±SE, vehicle 491±38.9 U/L, p<0.0001", "value": "268±77", "unit": "U/L"}, {"measurement": "serum mKC level vs vehicle", "setting": "[2]; 30 mg/kg orally once a day for 4 weeks, MCD diet, p<0.05", "value": "reduced"}, {"measurement": "liver CYP2E1 expression levels", "setting": "[2]; 30 mg/kg orally once a day for 4 weeks, chow or MCD diet (independent of MCD diet), p<0.001", "value": "significant inhibition"}, {"measurement": "liver MMP-9 expression level (MCD diet induction)", "setting": "[2]; [11]", "value": "inhibition of MCD diet induction"}, {"measurement": "liver MMP-14 expression level (MCD diet induction)", "setting": "[2]; [11]", "value": "inhibition of MCD diet induction"}, {"measurement": "liver TIMP-1 expression level (MCD diet induction)", "setting": "[2]; [11]", "value": "inhibition of MCD diet induction"}, {"measurement": "inflammatory cell infiltration and fibrosis in liver (Trichrome staining)", "setting": "[2]; [12]", "value": "more severe in the livers of vehicle treated compared to Compound A treated mice"}, {"measurement": "inflammatory cell infiltration and portal inflammation in liver (H&E staining)", "setting": "[2]; [12]", "value": "more severe in the livers of vehicle treated compared to Compound A treated mice"}, {"measurement": "liver function, inflammation and fibrosis (histological analyses of liver sections)", "setting": "[2]; [12]", "value": "preserved liver function, and reduced liver inflammation and fibrosis"}, {"measurement": "neutral lipid accumulation in the liver (Oil Red O staining)", "setting": "[2]; [12]", "value": "no effect"}, {"measurement": "IL-6 induced CRP mRNA levels", "setting": "Hep3B cells [3]", "value": "reduced"}, {"measurement": "effect on liver VCAM-1 levels, FXR dependence", "setting": "[4]", "value": "mediated by FXR"}, {"measurement": "hepatic protective effect (serum ALT), FXR dependence", "setting": "[4]", "value": "mediated by FXR"}, {"measurement": "reduction of liver Col1a2, FXR dependence", "setting": "[4]", "value": "mediated by FXR"}, {"measurement": "reduction of liver TIMP-1, FXR dependence", "setting": "[4]", "value": "mediated by FXR"}, {"measurement": "Gallstone dissolution (gallstone incidence, mice with gallstones/mice)", "setting": "[5]; vehicle 13/26", "value": "5/20"}, {"measurement": "gallstone incidence in mice with preformed gallstones", "setting": "[5]; vehicle 50%", "value": 25, "unit": "%"}, {"measurement": "decrease of serum ALT levels vs vehicle", "setting": "[6]; P<0.01", "value": 60, "unit": "%"}, {"measurement": "decrease of serum AST levels vs vehicle", "setting": "[6]; P<0.01", "value": 75, "unit": "%"}, {"measurement": "decrease of liver TGF-β levels (TGF-β1 mRNA) vs vehicle", "setting": "[6]; normalized to GAPDH, P<0.01", "value": 30, "unit": "%"}, {"measurement": "decrease of liver a-SMA levels (mRNA) vs vehicle", "setting": "[6]; normalized to GAPDH, P<0.01", "value": 40, "unit": "%"}, {"measurement": "decrease of liver MMP-9 levels (mRNA) vs vehicle", "setting": "[6]; normalized to GAPDH, P<0.04", "value": 75, "unit": "%"}, {"measurement": "decrease of liver TIMP-1 levels (mRNA) vs vehicle", "setting": "[6]; normalized to GAPDH, P<0.04", "value": 60, "unit": "%"}, {"measurement": "bile cholesterol level vs vehicle", "setting": "[7]; [13]", "value": "higher"}, {"measurement": "bile phospholipid level vs vehicle", "setting": "[7]; [13]", "value": "higher"}, {"measurement": "bile salt level vs vehicle", "setting": "[7]; [13]", "value": "Lower"}, {"measurement": "BS (bile salt) in gallbladder bile", "setting": "[7]; [14]", "value": "120.06 ± 14.28", "unit": "mM"}, {"measurement": "CE (cholesterol) in gallbladder bile", "setting": "[7]; [14]", "value": "7.54 ± 0.86", "unit": "mM"}, {"measurement": "PL (phospholipids) in gallbladder bile", "setting": "[7]; [14]", "value": "27.54 ± 2.14", "unit": "mM"}, {"measurement": "bile salt/phospholipid ratio vs vehicle", "setting": "[7]; mice with preformed gallstones", "value": "significantly decreased"}, {"measurement": "IL-6 induced CRP secretion", "setting": "Hep3B cells [8]; Compound A 5 μM, IL-6 10 ng/ml, IL-6 50 ng/ml, or IL-6 10 ng/ml & IL-1β 20 ng/ml, P<0.001 vs DMSO", "value": "inhibited"}, {"measurement": "IC50", "setting": "Hep3B cells [8]; 10 ng/ml of IL-6", "value": 224, "unit": "nM"}, {"measurement": "IC50", "setting": "Hep3B cells [8]; 50 ng/ml IL-6", "value": 220, "unit": "nM"}, {"measurement": "bile cholesterol level increase induced by the Paigen diet, vs vehicle", "setting": "mice fed a Paigen diet; [15]", "value": "attenuated the increases"}, {"measurement": "bile phospholipid level increase induced by the Paigen diet, vs vehicle", "setting": "mice fed a Paigen diet; [15]", "value": "attenuated the increases"}, {"measurement": "BS (bile salt) in gallbladder bile", "setting": "mice fed a Paigen diet; [16]", "value": "110.42 ± 24.79", "unit": "mM"}, {"measurement": "CE (cholesterol) in gallbladder bile", "setting": "mice fed a Paigen diet; [16]", "value": "7.70 ± 0.28", "unit": "mM"}, {"measurement": "PL (phospholipids) in gallbladder bile", "setting": "mice fed a Paigen diet; [16]", "value": "20.19 ± 1.00", "unit": "mM"}]}
